Test results: patent US20060100168A1, “Method of treating cancer using adenosine and its analogs” (The Trustee of Boston University, priority 2002, published 2006)
“Also recorded” adds a separate entry of the source.

Tests used:
[1] = tested on: estrogen receptor α (ERα); test: ERα protein level by Western blot in MCF-7 cells; format: cell-based, human; conditions: for ERα Level: 12 hours, 100 μM, except adenosine (500 μM), Western blot quantitated, vehicle control set to 1, average of two experiments; for ERα protein level, in words: Western blot
Description: Western Blot Analysis: Cells were washed three times in cold 1×PBS, and collected by scraping on ice. Western blot analysis was performed as we described before with the chemiluminescence method (41). […] Cyclin A, cyclin B1 and p27 antibodies were used at 1:500 dilutions. Cyclin E antibody was used at 1:1000 dilutions.

[2] = tested on: MCF-7 cells; test: Apoptosis by propidium iodide staining and flow cytometry (sub-diploid events); format: cell-based, human; conditions: 100 μM; for Apoptosis: 2 days of treatment, except adenosine (500 μM) and inosine (1 mM), number of apoptotic cells compared to vehicle control (set to 1), average ± SD; for Apoptosis, in words: two days
Description: (§1) Flow Cytometry and Apoptosis Analysis: Cells were detached from tissue culture plates by trypsin treatment. Cells were collected by centrifugation at 1200 g for 5 minutes and washed once with PBS. Staining of cells with propidium iodide and analysis on a flow cytometer (FACScan, Becton Dickinson, Research Triangle Park, N.C.) was performed as described before (42). Data were analyzed with CellQuest software (Becton Dickinson, Research Triangle Park, N.C.). The percentage of cells appearing with a ploidy level smaller than a diploid content was calculated as an estimate of cells undergoing apoptosis.

[3] = tested on: MCF-7 cells; test: Anchorage-dependent growth assay (viable cell count, Trypan Blue); format: cell-based, human; conditions: for Cell Growth / Effect on MCF-7 cell growth, in words: MCF-7; for Cell Growth: 2 days of treatment, compounds at 100 μM, except adenosine (500 μM) and inosine (1 mM), normalized to vehicle control (set to 1), negative = decrease vs count before treatment, average ± SD, three experiments; for Effect on MCF-7 cell growth, in words: summary of Table 1 and discussion
Description: Anchorage-dependent growth assay: Cells were plated into 6-well plates and grown overnight before treatments. The seeding concentration of MCF-7 cells was 2×10^5/well, which was determined during preliminary experiments as not allowing the cells to reach confluency within 3 days. Cells were treated either with vehicle or ligands, as indicated. Cells were detached by incubation with trypsin (Invitrogen, Carlsbad, Calif.) and counted with a hemacytometer before or after treatment.

[4] = tested on: MCF-7 cells; test: Anchorage-independent growth (soft agar) assay; format: cell-based, human; conditions: for Effect on anchorage-independent growth (colony formation), in words: different concentrations
Description: Anchorage-independent growth (soft agar) assay: Soft agar assay was performed as described (40) with the following modifications. Ligands were added into the bottom and top agar before plating into 6-well plates. Cells were treated with trypsin (Invitrogen, Carlsbad, Calif.) for 5 minutes in a 37° C. incubator and pipetted several times so that most cells were in single cell forms. Cells were counted with a hemacytometer (Hausser Scientific/VWR, So. Plainfield, N.J.), and 10,000 cells were mixed with top agar and plated into each well. After the top agar had solidified, two ml of medium containing the same treatment was added on top of the agar. This covering medium was changed every two days during culture. After two weeks of culture, each well was counted for the number of colonies formed on an Olympus IX70 microscope under 40× optical amplification. A cell colony was defined as any cluster of cells that contain more than 3 cells. The average of counts from 3 random optical fields for each well was taken as the colony number and analyzed. Each treatment was performed in triplicates. The averages and standard deviations shown in the figures were calculated based on triplicate experiments.

[5] = tested on: MCF-7 cells; test: Cell cycle analysis by flow cytometry; format: cell-based, human; conditions: 100 μM, except adenosine (500 μM) and inosine (1 mM); for Percentage change of diploid (G0 or G1 phase) population compared to vehicle-treated cells: first number in parentheses; for Percentage change of S phase population compared to vehicle-treated cells: second number in parentheses; for Percentage change of tetraploid (G2 or M phase) population compared to vehicle-treated cells: third number in parentheses
Description: as §1

[6] = tested on: primary rat bone marrow cells; test: Thymidine incorporation assay; format: cell-based; conditions: 24 hours, IB-MECA at 100 μM
Description: (§2) Thymidine Incorporation Assay. Thymidine incorporation assays were performed as described (Zhang, Y., Wang, Z., and Ravid, K. The cell cycle in polyploid megakaryocytes is associated with reduced activity of cyclin B1-dependent cdc2 kinase. J Biol Chem, 271: 4266-4272, 1996) with modifications. Rat bone marrow cells were cultured in 25 cm^2 flasks at a concentration of 20×10^6 cells per 2 ml. After drug treatment for 24 hours, cells were incubated with ^3H-thymidine at a final concentration of 3 μCi/ml for 8 hours. For MCF-7 cells, cells were cultured in 6-well plates and incubated with ^3H-thymidine for 2 hours after drug treatment. Cells were divided into two portions, sixty percent of which were processed as described (Id.) to obtain tritium counts. The rest of the cells were lysed with Western blotting lysis buffer and protein concentrations were determined by Bio-Rad protein assay reagent (Bio-Rad, Hercules, Calif.). Tritium counts were normalized with corresponding protein concentrations to account for cell number variations.

[7] = tested on: MCF-7 cells; test: Thymidine incorporation assay; format: cell-based, human; conditions: treated 24 hours before thymidine
Description: as §2

Row | SMILES | ERα Level [1] | Apoptosis [2] | Cell Growth [3] | Effect on MCF-7 cell growth, in words [3] | Effect on anchorage-independent growth (colony formation), in words ([4]; MCF-7 soft agar, two weeks) | Percentage change of diploid (G0 or G1 phase) population compared to vehicle-treated cells [5] [%] | Percentage change of S phase population compared to vehicle-treated cells [5] [%] | Percentage change of tetraploid (G2 or M phase) population compared to vehicle-treated cells [5] [%] | Effect of A3AR antagonist on IB-MECA inhibitory effect on growth ([4]; MCF-7, antagonist up to 1 μM, not shown) | Apoptosis, in words [2] | Thymidine incorporation reduced to [6] [%] | Effect on MCF-7 cell growth, in words ([3]; listed as 2-chloror-deoxyadenosine) | Thymidine incorporation decreased to [7] [%] | ERα protein level, in words [1] | Effect of nucleoside transporter inhibitor on growth inhibitory effect of IB-MECA ([3]; 10 μM) | Effect on cell growth by itself ([3]; at higher concentrations than 10 μM) | Cell Cycle Arrest (position of arrest) ([5]; flow cytometry) | inhibition at 1000 µM ([4]; Homo sapiens, MCF7, 336 h, MCF-7 soft agar, 1 mM, two weeks, read-out: Inhibition of colony-forming ability) [%]
1 | OC[C@H]1O[C@@H](n2cnc3c(NC4CCCC4)nc(Cl)nc32)[C@H](O)[C@@H]1O [CCPA, 2-Chloro-N^6-cyclopentyladenosine] | 1.16 | 0.49 ± 0.12 | 0.79 ± 0.16 | no significant effect on cell growth; also recorded: did not have a significant effect | did not inhibit | 3 | −18 | 11 | – | – | – | – | – | – | – | – | – | –
2 | CCOC(=O)C1=C(C)NC(c2ccccc2)=C(C(=O)OCc2ccccc2)C1C#Cc1ccccc1 (centres unmarked) [MRS1191] | – | – | – | – | – | – | – | – | did not abolish | – | – | – | – | – | – | – | – | –
3 | Nc1nc(Cl)nc2c1ncn2[C@H]1C[C@H](O)[C@@H](CO)O1 [CdA, 2-chloro-2′-deoxyadenosine] | – | 1.80 ± 0.17 | 0.13 ± 0.01 | – | – | −69 | 165 | 20 | – | induced cellular apoptosis | 32 | significantly inhibited; also recorded: as effective at 1 μM (not shown) as at 100 μM | 43 | – | – | – | – | –
4 | Nc1ncnc2c1ncn2[C@@H]1O[C@H](CO)C[C@H]1O [Cordycepin, 3′-deoxyadenosine] | 0.58 | 0.43 ± 0.07 | 0.24 ± 6 | significantly inhibited cell growth | – | −26 | 10 | 62 | – | without inducing apoptosis | – | – | – | significantly inhibited cell growth and ERα levels | – | – | – | –
5 | OCCN(CCO)c1nc(N2CCCCC2)c2nc(N(CCO)CCO)nc(N3CCCCC3)c2n1 [dipyridamole] | – | – | – | – | – | – | – | – | – | – | – | – | – | – | did not prevent the growth inhibitory effect of IB-MECA | inhibitory effect on cell growth | – | –
6 | CCNC(=O)[C@H]1O[C@@H](n2cnc3c(N)ncnc32)[C@H](O)[C@@H]1O [NECA, 5′-(N-Ethylcarboxamido)adenosine] | 0.92 | 0.99 ± 0.05 | 0.90 ± 0.16 | no significant effect on cell growth; also recorded: did not have a significant effect | did not inhibit | 0 | 3 | −3 | – | – | – | – | – | no significant change | – | – | Not Detectable | –
7 | Nc1nc(Cl)nc2c1ncn2[C@@H]1O[C@H](CO)[C@@H](O)[C@H]1O [CADO, 2-chloro-adenosine] | 0.41 | 0.84 ± 0.6 | −0.02 ± 0.02 | significantly inhibited cell growth | – | −11 | 11 | 20 | – | without inducing apoptosis | – | – | – | significantly inhibited cell growth and ERα levels | – | – | – | –
8 | OC[C@H]1O[C@@H](n2cnc3c(O)ncnc32)[C@H](O)[C@@H]1O [Inosine] | – | 1.02 ± 0.14 | 0.90 ± 0.12 | no significant effect on cell growth | No effect | −24 | 43 | 8 | – | – | – | – | – | – | – | – | – | –
9 | Nc1ncnc2c1ncn2[C@@H]1O[C@H](CO)[C@@H](O)[C@H]1O [Adenosine] | 1.07 | 1.06 ± 0.17 | 0.49 ± 0.04 | – | dose-dependent inhibition of colony formation | −25 | −56 | 97 | – | – | – | – | – | – | – | – | – | ~50
10 | CCNC(=O)[C@H]1O[C@@H](n2cnc3c(N)nc(NCCc4ccc(CCC(=O)O)cc4)nc32)[C@H](O)[C@@H]1O [CGS21680, 2-p-(2-Carboxyethyl)phenethylamino-5′-N-ethylcarboxamidoadenosine] | – | – | – | did not have a significant effect | did not inhibit | – | – | – | – | – | – | – | – | – | – | – | – | –
